Source: patent publication US20100063074A1, “Cancer Treatment Method” (priority 2004, published 2010)
Like-named read-outs stand apart in the source and are kept apart here.

Columns and labels:
[1] = tested on: pancreatic cancer with distant metastases; details: pancreatic tumors with distant metastases; cited from earlier work
[2] = tested on: EGFR and erbB2 kinases; details: Rusnak et al., 2001b; Xia et al., 2002; cited from earlier work
[3] = tested on: Calu1; experiment: Cell growth inhibition IC50, Calu1; details: Homo sapiens, Calu-1, read-out: Growth Inhibition (IC50 μM)
Description: (§1) The cells were maintained in tissue culture flasks in RPMI 1640 (Invitrogen # 22400-089) with 10% fetal bovine serum (FBS, HyClone # SH30071.03) and were incubated at 37° Celsius in an atmosphere of 5% CO2, until plating for IC50 determination. For IC50 determination, cells were plated in the appropriate medium at 5,000 cells per well in a 96-well tissue culture dish and returned to the incubator overnight. […] Final concentrations ranged from 30 micromolar to 0.00152 micromolar. After three days of compound exposure, the growth medium was removed by aspiration. Cell biomass was estimated by staining cells in 0.1 ml per well of methylene blue (Sigma #M9140, 0.5% in 50:50, ethanol:water), followed by incubation at room temperature for at least 30 minutes. Stain was aspirated and the plates rinsed by immersion in deionized water, followed by air drying. Stain was released from cells by the addition of 0.1 ml of solubilization solution (1.0% N-lauryl sarcosine, Sodium salt, Sigma #L5121 in PBS). Plates were incubated at room temperature for 40 minutes. Absorbance was read at 620 nm in a Tecan Spectra micro-plate reader. Percent inhibition of cell growth was calculated relative to untreated control wells. IC50 values were interpolated using the method of Levenberg and Marquardt (Mager, 1972) and the equation: y=Vmax*[1−(x^n/(K^n+x^n))], where “K” is equal to IC50. […]

[4] = tested on: DLD-1; experiment: Cell growth inhibition IC50, DLD-1; details: Homo sapiens, DLD-1, read-out: Growth Inhibition (IC50 μM)
Description: as §1

[5] = tested on: Colo 205; experiment: Cell growth inhibition IC50, Colo 205; details: Homo sapiens, COLO 205, read-out: Growth Inhibition (IC50 μM)
[6] = tested on: NCI-H322; experiment: Cell growth inhibition IC50, NCI-H322; type: cell-based; details: NSCLC
Description: as §1

[7] = tested on: solid tumors; details: for time remained on lapatinib, SD patient: progressing on previous therapy
[8] = tested on: NCI-H460; experiment: Cell growth inhibition IC50, NCI-H460; type: cell-based; details: Homo sapiens, Lung Carcinoma
Description: (§2) The human bladder cell lines, HT-1197, HT-1376 and T24, and the ovarian cell line, SKOV3, were obtained from the American Type Culture Collection. The cells were maintained in tissue culture flasks in RPMI 1640 (Invitrogen # 22400-089) with 10% fetal bovine serum (FBS, HyClone # SH30071.03) and were incubated at 37° Celsius in an atmosphere of 5% CO2, until plating for IC50 determination. For IC50 determination, cells were plated in the appropriate medium at 5,000 cells per well in a 96-well tissue culture dish and returned to the incubator overnight. […] Final concentrations ranged from 30 micromolar to 0.00152 micromolar. After three days of compound exposure, the growth medium was removed by aspiration. Cell biomass was estimated by staining cells in 0.1 ml per well of methylene blue (Sigma #M9140, 0.5% in 50:50, ethanol:water), followed by incubation at room temperature for at least 30 minutes. Stain was aspirated and the plates rinsed by immersion in deionized water, followed by air drying. Stain was released from cells by the addition of 0.1 ml of solubilization solution (1.0% N-lauryl sarcosine, Sodium salt, Sigma #L5121 in PBS). Plates were incubated at room temperature for 40 minutes. Absorbance was read at 620 nm in a Tecan Spectra micro-plate reader. Percent inhibition of cell growth was calculated relative to untreated control wells. […]

[9] = tested on: 786O; experiment: Cell growth inhibition IC50, 786O; details: Homo sapiens, 786-0, read-out: Growth Inhibition (IC50 μM)
Description: as §2

[10] = tested on: LS174T; experiment: Cell growth inhibition IC50, LS174T; type: cell-based; details: Homo sapiens, Colon adenocarcinoma
Description: as §1

[11] = tested on: locally advanced or metastatic transitional cell carcinoma of the urothelial tract
Description: Safety and efficacy assessments (independent review) were carried out at 4 and 8-week intervals respectively. Patients were also assessed at withdrawal, and followed every 2 months until death.

[12] = tested on: RKO; experiment: Cell growth inhibition IC50, RKO; type: cell-based; details: Homo sapiens, Colorectal carcinoma
Description: as §1

[13] = tested on: NCI-H2009; experiment: Cell growth inhibition IC50, NCI-H2009; details: Homo sapiens, NCI-H2009, read-out: Growth Inhibition (IC50 μM)
Description: as §1

[14] = tested on: CaLu3; experiment: Cell growth inhibition IC50, CaLu3; details: Homo sapiens, Calu-3, read-out: Growth Inhibition (IC50 μM)
Description: as §2

[15] = tested on: SKOV3; experiment: Cell growth inhibition IC50 (methylene blue), SKOV3; details: Homo sapiens, SK-OV-3, 72 h, read-out: Growth Inhibition (IC50 μM)
Description: as §2

[16] = tested on: A431; experiment: Cell growth inhibition IC50, A431; details: Homo sapiens, A-431, read-out: Growth Inhibition (IC50 μM)
Description: as §2

[17] = tested on: SW480; experiment: Cell growth inhibition IC50, SW480; details: Homo sapiens, SW480, read-out: Growth Inhibition (IC50 μM)
Description: as §2

[18] = tested on: HMEC; experiment: Cell growth inhibition IC50, HMEC; details: Homo sapiens, read-out: Growth Inhibition (IC50 μM)
Description: as §1

[19] = tested on: H1376; experiment: Cell growth inhibition IC50 (methylene blue), H1376; details: Homo sapiens, 72 h, read-out: Growth Inhibition (IC50 μM)
Description: as §2

[20] = tested on: SW837; experiment: Cell growth inhibition IC50, SW837; details: Homo sapiens, SW837, read-out: Growth Inhibition (IC50 μM)
[21] = tested on: Lovo; experiment: Cell growth inhibition IC50, Lovo; type: cell-based; details: Homo sapiens, Colorectal carcinoma
Description: as §2

[22] = tested on: H157; experiment: Cell growth inhibition IC50, H157; type: cell-based; details: Homo sapiens, NCI-H157, Lung carcinoma
Description: as §1

[23] = tested on: A427; experiment: Cell growth inhibition IC50, A427; type: cell-based; details: Homo sapiens, A-427, Lung Carcinoma
Description: as §2

[24] = tested on: A549; experiment: Cell growth inhibition IC50, A549; details: Homo sapiens, A549, read-out: Growth Inhibition (IC50 μM)
Description: as §2

[25] = tested on: H16 N2 (Transfected erbB2); experiment: Cell growth inhibition IC50, H16 N2; details: read-out: Growth Inhibition (IC50 μM)
Description: as §2

[26] = tested on: NCI-H358; experiment: Cell growth inhibition IC50, NCI-H358; details: Homo sapiens, NCI-H358, read-out: Growth Inhibition (IC50 μM)
Description: as §1

[27] = tested on: NCI-H747; experiment: Cell growth inhibition IC50, NCI-H747; details: Homo sapiens, NCI-H747, read-out: Growth Inhibition (IC50 μM)
Description: as §1

[28] = tested on: H1197; experiment: Cell growth inhibition IC50 (methylene blue), H1197; details: Homo sapiens, 72 h, read-out: Growth Inhibition (IC50 μM)
Description: The cells were maintained in tissue culture flasks in RPMI 1640 (Invitrogen # 22400-089) with 10% fetal bovine serum (FBS, HyClone # SH30071.03) and were incubated at 37° Celsius in an atmosphere of 5% CO2, until plating for IC50 determination. For IC50 determination, cells were plated in the appropriate medium at 5,000 cells per well in a 96-well tissue culture dish and returned to the incubator overnight. […] Final concentrations ranged from 30 micromolar to 0.00152 micromolar. After three days of compound exposure, the growth medium was removed by aspiration. Cell biomass was estimated by staining cells in 0.1 ml per well of methylene blue (Sigma #M9140, 0.5% in 50:50, ethanol:water), followed by incubation at room temperature for at least 30 minutes. Stain was aspirated and the plates rinsed by immersion in deionized water, followed by air drying. Stain was released from cells by the addition of 0.1 ml of solubilization solution (1.0% N-lauryl sarcosine, Sodium salt, Sigma #L5121 in PBS). Plates were incubated at room temperature for 40 minutes. Absorbance was read at 620 nm in a Tecan Spectra micro-plate reader. Percent inhibition of cell growth was calculated relative to untreated control wells. IC50 values were interpolated using the method of Levenberg and Marquardt (Mager, 1972) and the equation: y=Vmax*[1−(x^n/(K^n+x^n))], where “K” is equal to IC50.

[29] = tested on: locally advanced or metastatic TCC of the bladder
[30] = tested on: SKMEL28; experiment: Cell growth inhibition IC50, SKMEL28; type: cell-based; details: Homo sapiens, SK-MEL-28, Melanoma
Description: as §1

[31] = tested on: HT29; experiment: Cell growth inhibition IC50, HT29; details: Homo sapiens, HT-29, read-out: Growth Inhibition (IC50 μM)
[32] = tested on: HCT 116; experiment: Cell growth inhibition IC50, HCT 116; details: Homo sapiens, HCT-116, read-out: Growth Inhibition (IC50 μM)
Description: as §1

[33] = tested on: LNCaP; experiment: Cell growth inhibition IC50, LNCaP; details: Homo sapiens, read-out: Growth Inhibition (IC50 μM)
Description: as §2

[34] = tested on: T24; experiment: Cell growth inhibition IC50 (methylene blue), T24; details: Homo sapiens, T-24, 72 h, read-out: Growth Inhibition (IC50 μM)
Description: as §2

[35] = tested on: PC3; experiment: Cell growth inhibition IC50, PC3; details: Homo sapiens, PC-3, read-out: Growth Inhibition (IC50 μM)
Description: as §2

[36] = tested on: HFF; experiment: Cell growth inhibition IC50, HFF; details: Homo sapiens, read-out: Growth Inhibition (IC50 μM)
Description: as §2

[37] = tested on: SW620; experiment: Cell growth inhibition IC50, SW620; details: Homo sapiens, SW-620, read-out: Growth Inhibition (IC50 μM)
[38] = tested on: BxPC3; experiment: Cell growth inhibition IC50, BxPC3; details: Homo sapiens, BXPC-3, read-out: Growth Inhibition (IC50 μM)
Description: as §1

[39] = tested on: NCI-H727; experiment: Cell growth inhibition IC50, NCI-H727; type: cell-based; details: Homo sapiens, Lung carcinoid bronchus
Description: as §1

[40] = Head and Neck, 9 patients, only patients receiving lapatinib more than 4 months
[41] = QD administration, heavily pre-treated population
[42] = 1250 mg once daily, interim analysis of 30 patients
[43] = 1250 mg daily oral, 59 patients, investigator reported

Structure (SMILES): O=c1[nH]cc(F)c(=O)[nH]1 [FU, fluorouracil]
- clinical benefit response (cancer-related symptoms) [1]: 4.8%
- overall survival [1]: 4.4 months

Structure (SMILES): CS(=O)(=O)CCNCc1ccc(-c2ccc3ncnc(Nc4ccc(OCc5cccc(F)c5)c(Cl)c4)c3c2)o1 [GW572016, N-{3-chloro-4-[(3-fluorobenzyl)oxy]phenyl}-6-[5-({[2-(methanesulphonyl)ethyl]amino}methyl)-2-furyl]-4-quinazolinamine]
- kinase inhibition in human xenograft studies [2]: dose-dependent kinase inhibition

Structure (SMILES): CS(=O)(=O)CCNCc1ccc(-c2ccc3ncnc(Nc4ccc(OCc5cccc(F)c5)c(Cl)c4)c3c2)o1.Cc1ccc(S(=O)(=O)O)cc1 [GW572016F, N-{3-Chloro-4-[(3-fluorobenzyl)oxy]phenyl}-6-[5-({[2-(methanesulphonyl)ethyl]amino}methyl)-2-furyl]-4-quinazolinamine ditosylate monohydrate]
- IC50 [3]: 5.51 µM
- IC50 [4]: 3.63 µM
- IC50 [5]: 7.7 µM
- IC50 [6]: 0.92 µM
- median duration of SD ([7]; 22 SD pts): 4 mos
- interstitial pneumonitis ([7]; 81 patients treated): no cases
- time remained on lapatinib, SD patient ([7]; AUP metastatic to lung): ≥ 8 mos
- Clinical Response, SD (patients) ([7]; AUP, 6 patients, only patients receiving lapatinib more than 4 months): SD = 1
- Clinical Response, SD (patients) ([7]; Breast, 6 patients, only patients receiving lapatinib more than 4 months): SD = 2
- Clinical Response, SD (patients) ([7]; Cervical, 2 patients, only patients receiving lapatinib more than 4 months): SD = 1
- Clinical Response, SD (patients) ([7]; Colorectal, 27 patients, only patients receiving lapatinib more than 4 months): SD = 3
- Clinical Response, CR (patients) [7, 40]: 1
- Clinical Response, SD (patients) [7, 40]: 3
- Clinical Response, SD (patients) ([7]; Mesothelioma, 3 patients, only patients receiving lapatinib more than 4 months): SD = 1
- Clinical Response, SD (patients) ([7]; NSCLC, 7 patients, only patients receiving lapatinib more than 4 months): SD = 3
- clinical activity (in words) [7, 41]: evidence of clinical activity
- tolerability (in words) [7, 41]: well tolerated
- Clinical Response, SD (patients) ([7]; Renal, 6 patients, only patients receiving lapatinib more than 4 months): SD = 2
- duration of CR ([7]; erbB1 overexpressing head and neck squamous cell carcinoma): ≥ 16 mos
- CR (number of patients) ([7]; erbB1 overexpressing head and neck squamous cell carcinoma, 81 patients treated): One
- time remained on lapatinib, SD patient ([7]; non-small cell lung cancer): ≥ 12 mos
- patients who experienced SD ([7]; various tumors most overexpressing either erbB1 or erbB2, 81 patients treated): Twenty-two
- IC50 [8]: 9 µM
- IC50 [9]: 1.82 µM
- IC50 [10]: 1.51 µM
- Clinical benefit (≧6 months SD) [11, 42]: 10%
- PR confirmed at 8 weeks (number) [11, 42]: one
- patients with progressive disease [11, 42]: 17%
- patients with tumour reduction qualified as partial responses (PR) at the initial assessment [11, 42]: 10%
- activity (in words) ([11]; second-line oral treatment): promising activity
- IC50 [12]: 5.48 µM
- IC50 [13]: 11.5 µM
- IC50 [14]: 0.057 µM
- IC50 [15]: 1.25 µM
- IC50 [16]: 0.23 µM
- IC50 [17]: 6.86 µM
- IC50 [18]: 1.34 µM
- IC50 [19]: 3.34 µM
- IC50 [20]: 4.7 µM
- IC50 [21]: 3.39 µM
- IC50 [22]: 5.98 µM
- IC50 [23]: 5.95 µM
- IC50 [24]: 4.98 µM
- IC50 [25]: 0.03 µM
- IC50 [26]: 0.27 µM
- IC50 [27]: 1.49 µM
- IC50 [28]: 7.78 µM
- patients with asymptomatic, Grade 2 decrease in cardiac ejection fraction ([29]; 1250 mg daily): One
- tolerability (in words) ([29]; 1250 mg daily): well-tolerated
- PR, independent radiologic review ([29]; 1250 mg daily oral, 59 patients, RECIST): 2%
- partial responses (PR), investigators [29, 43]: 3%
- stable disease (SD), investigators [29, 43]: 20%
- Grade 3/4 AEs: diarrhea ([29]; 1250 mg daily, Grade 3/4): 3%
- Grade 3/4 AEs: vomiting ([29]; 1250 mg daily, Grade 3/4): 7%
- Adverse events: asthenia ([29]; 1250 mg daily, all grades): 12%
- Adverse events: diarrhea ([29]; 1250 mg daily, all grades): 39%
- Adverse events: fatigue ([29]; 1250 mg daily, all grades): 10%
- Adverse events: nausea ([29]; 1250 mg daily, all grades): 27%
- Adverse events: rash ([29]; 1250 mg daily, all grades): 32%
- Adverse events: vomiting ([29]; 1250 mg daily, all grades): 22%
- median TTP ([29]; 95% CI 8.00, 11.29): 8.6 weeks
- median overall survival ([29]; 95% CI 13.14, 30.29): 17.9 weeks
- clinical benefit (CR+PR+SD≧16 weeks), independent review ([29]; assessed by independent review): 12%
- clinical benefit (CR+PR+SD≧16 weeks), investigator ([29]; assessed by investigator): 14%
- patients with cytoreduction ([29]; at week 8): 10 patients
- patients with cytostasis ([29]; at week 8): 4 patients
- patients with tumor growth up to 20% ([29]; at week 8): 10 patients
- patients with durable SD lasting 6 months ([29]; independent review): three
- patients with durable SD lasting 4 months ([29]; investigator review): six
- time on study of one patient who remains on study ([29]; one patient): > 56 weeks
- activity (in words) ([29]; relapsed, advanced or metastatic TCC of the bladder): exhibits monotherapy activity
- IC50 [30]: 5.9 µM
- IC50 [31]: 5.24 µM
- IC50 [32]: 5.87 µM
- IC50 [33]: 4.69 µM
- IC50 [34]: 8.22 µM
- IC50 [35]: 7.15 µM
- IC50 [36]: 6.45 µM
- IC50 [37]: 6.75 µM
- IC50 [38]: 1.41 µM
- IC50 [39]: 7.59 µM

Structure (SMILES): Nc1ccn([C@@H]2O[C@H](CO)[C@@H](O)C2(F)F)c(=O)n1 [gemcitabine]
- clinical benefit response (cancer-related symptoms) [1]: 23.8%
- overall survival [1]: 5.6 months
